Measured values from US20200399262A1, “COMPOUNDS FOR INHIBITING PROTEIN DEGRADATION AND METHODS OF USE THEREOF IN THE TREATMENT OF CANCER” (PI Therapeutics Ltd, priority 2018, published 2020).

Tests used:
Assay type in all cases: cell-based
SK-MEL-5 = assay: Cell viability panel, CyQUANT Direct; details: Homo sapiens, Melanoma, 48 hours, read-out: Compound EC50
Description: (§1) Cell viability panel studies. Cells were diluted in the corresponding ATCC recommended medium and dispensed in a 384-well plate, depending on the cell line used, at a density of 200-6400 cells per well. For each used cell line, the optimal cell density was used. Compound was serially diluted and 8 concentration (0.04-32 μM) were added to the cells for 72 h exposure. At t=end, of ATPlite 1Step™ (PerkinElmer) were used to calculate cell viability. Cell lines marked with asterisk were seeded 24 h prior to treatment in 96-well plates at the density range of 5,000-40,000 cells/well, according to duplication rate, in RPMI 1640 medium containing 10% fetal bovine serum and 2 mM L-glutamine. Compounds were diluted from 10 mM DMSO stock and treatment was applied at the range of 0.04-1 μM. Following incubation at 37° C. for 48 hours with increasing concentrations of the compounds, viability was determined with CyQUANT® Direct Assay Kit (Invitrogen). Output intensities were normalized to values after treatment with DMSO alone, and EC50 values were calculated using the absorbance measurements [time zero, (Tz), growth control, (C), plus the test growth at the four drug concentration levels (Ti)] as follows: [(Ti−Tz)/(C−Tz)]×100 for concentrations for which Ti>/=Tz; [(Ti−Tz)/Tz]×100 for concentrations for which Ti−<Tz.

U251 = assay: Cell viability panel, CyQUANT Direct; details: Homo sapiens, U-251, CNS, 48 hours, read-out: Compound EC50
Description: as §1

SK-OV-3 = assay: Cell viability panel, CyQUANT Direct; details: Homo sapiens, Ovarian, 48 hours, read-out: Compound EC50
Description: as §1

OVCAR-4 = assay: Cell viability panel, CyQUANT Direct; details: Homo sapiens, Ovarian Cancer, 48 hours, read-out: Compound EC50
Description: as §1

SK-MEL-28 = assay: Cell viability panel, CyQUANT Direct; details: Homo sapiens, Melanoma, 48 hours, read-out: Compound EC50
Description: as §1

EKVX = assay: Cell viability panel, CyQUANT Direct; details: Homo sapiens, Lung cancer, 48 hours, read-out: Compound EC50
Description: as §1

UO-31 = assay: Cell viability panel, CyQUANT Direct; details: Homo sapiens, Renal cancer, 48 hours, read-out: Compound EC50
Description: as §1

CAKI-1 = assay: Cell viability panel, CyQUANT Direct; details: Homo sapiens, Renal cancer, 48 hours, read-out: Compound EC50
Description: as §1

HCC-2998 = assay: Cell viability panel, CyQUANT Direct; details: Homo sapiens, Colon cancer, 48 hours, read-out: Compound EC50
Description: as §1

SF-539 = assay: Cell viability panel, CyQUANT Direct; details: Homo sapiens, CNS, 48 hours, read-out: Compound EC50
Description: as §1

SF-295 = assay: Cell viability panel, CyQUANT Direct; details: Homo sapiens, CNS, 48 hours, read-out: Compound EC50
Description: as §1

MDA-MB-468 = assay: Cell viability panel, CyQUANT Direct; details: Homo sapiens, Breast cancer, 48 hours, read-out: Compound EC50
Description: as §1

SF-268 = assay: Cell viability panel, CyQUANT Direct; details: Homo sapiens, CNS, 48 hours, read-out: Compound EC50
Description: as §1

M14 = assay: Cell viability panel, CyQUANT Direct; details: Homo sapiens, Melanoma, 48 hours, read-out: Compound EC50
Description: as §1

OVCAR-5 = assay: Cell viability panel, CyQUANT Direct; details: Homo sapiens, Ovarian Cancer, 48 hours, read-out: Compound EC50
Description: as §1

MDA-MB-231 = assay: Cell viability panel, CyQUANT Direct; details: Homo sapiens, Breast Cancer, 48 hours, read-out: Compound EC50
Description: as §1

SNB-19 = assay: Cell viability panel, CyQUANT Direct; details: Homo sapiens, CNS, 48 hours, read-out: Compound EC50
Description: as §1

NCI-H522 = assay: Cell viability panel, CyQUANT Direct; details: Homo sapiens, Lung Cancer, 48 hours, read-out: Compound EC50
Description: as §1

NCI-H322M = assay: Cell viability panel, CyQUANT Direct; details: Homo sapiens, Lung cancer, 48 hours, read-out: Compound EC50
Description: as §1

SN12C = assay: Cell viability panel, CyQUANT Direct; details: Homo sapiens, Renal cancer, 48 hours, read-out: Compound EC50
Description: as §1

UACC-62 [1] = assay: Cell viability panel, CyQUANT Direct; details: Homo sapiens, Melanoma, 48 hours, read-out: Compound EC50
Description: as §1

OVCAR-8 = assay: Cell viability panel, CyQUANT Direct; details: Homo sapiens, Ovarian Cancer, 48 hours, read-out: Compound EC50
Description: as §1

LOX IMVI = assay: Cell viability panel, CyQUANT Direct; details: Homo sapiens, Melanoma, 48 hours, read-out: Compound EC50
Description: as §1

HT-29 = assay: Cell viability panel, CyQUANT Direct; details: Homo sapiens, Colon cancer, 48 hours, read-out: Compound EC50
Description: as §1

SNB-75 = assay: Cell viability panel, CyQUANT Direct; details: Homo sapiens, CNS, 48 hours, read-out: Compound EC50
Description: as §1

MALME-3M = assay: Cell viability panel, CyQUANT Direct; details: Homo sapiens, Melanoma, 48 hours, read-out: Compound EC50
Description: as §1

HOP-62 = assay: Cell viability panel, CyQUANT Direct; details: Homo sapiens, Lung cancer, 48 hours, read-out: Compound EC50
Description: as §1

HOP-92 = assay: Cell viability panel, CyQUANT Direct; details: Homo sapiens, Lung cancer, 48 hours, read-out: Compound EC50
Description: as §1

TK-10 = assay: Cell viability panel, CyQUANT Direct; details: Homo sapiens, Renal cancer, 48 hours, read-out: Compound EC50
Description: as §1

RXF-393 = assay: Cell viability panel, CyQUANT Direct; details: Homo sapiens, Renal cancer, 48 hours, read-out: Compound EC50
Description: as §1

NCI-H23 = assay: Cell viability panel, CyQUANT Direct; details: Homo sapiens, Lung cancer, 48 hours, read-out: Compound EC50
Description: as §1

MDA-MB-435 = assay: Cell viability panel, CyQUANT Direct; details: Homo sapiens, Melanoma, 48 hours, read-out: Compound EC50
Description: as §1

IGR-OV1 = assay: Cell viability panel, CyQUANT Direct; details: Homo sapiens, IGROV-1, Ovarian cancer, 48 hours, read-out: Compound EC50
Description: as §1

UACC-257 = assay: Cell viability panel, CyQUANT Direct; details: Homo sapiens, Melanoma, 48 hours, read-out: Compound EC50
Description: as §1

SK-MEL-2 = assay: Cell viability panel, CyQUANT Direct; details: Homo sapiens, Melanoma, 48 hours, read-out: Compound EC50
Description: as §1

KM-12 = assay: Cell viability panel, CyQUANT Direct; details: Homo sapiens, KM12, Colon cancer, 48 hours, read-out: Compound EC50
Description: as §1

UACC-62 [2] = assay: NCI60 screen cytotoxicity; details: Homo sapiens, Melanoma, read-out: Compound B1 EC50

Structure (SMILES): CN(C)CCCS(=O)(=O)N1C/C(=C\c2ccc(C#N)cc2)C(=O)/C(=C/c2ccc(C#N)cc2)C1 [Compound AA]
- EC50 (SK-MEL-5): < 300 nM
- EC50 (U251): < 300 nM
- EC50 (SK-OV-3): < 300 nM
- EC50 (OVCAR-4): 300 to 1000 nM
- EC50 (SK-MEL-28): < 300 nM
- EC50 (EKVX): 300 to 1000 nM
- EC50 (UO-31): 300 to 1000 nM
- EC50 (CAKI-1): ≥ 1000 nM
- EC50 (HCC-2998): 300 to 1000 nM
- EC50 (SF-539): < 300 nM
- EC50 (SF-295): < 300 nM
- EC50 (MDA-MB-468): < 300 nM
- EC50 (SF-268): < 300 nM
- EC50 (M14): < 300 nM
- EC50 (OVCAR-5): < 300 nM
- EC50 (MDA-MB-231): < 300 nM
- EC50 (SNB-19): < 300 nM
- EC50 (NCI-H522): < 300 nM
- EC50 (NCI-H322M): 300 to 1000 nM
- EC50 (SN12C): < 300 nM
- EC50 (UACC-62 [1]): < 300 nM
- EC50 (OVCAR-8): < 300 nM
- EC50 (LOX IMVI): < 300 nM
- EC50 (HT-29): 300 to 1000 nM
- EC50 (SNB-75): 300 to 1000 nM
- EC50 (MALME-3M): < 300 nM
- EC50 (HOP-62): 300 to 1000 nM
- EC50 (HOP-92): 300 to 1000 nM
- EC50 (TK-10): 300 to 1000 nM
- EC50 (RXF-393): ≥ 1000 nM
- EC50 (NCI-H23): 300 to 1000 nM
- EC50 (MDA-MB-435): < 300 nM
- EC50 (IGR-OV1): < 300 nM
- EC50 (UACC-257): 300 to 1000 nM
- EC50 (SK-MEL-2): < 300 nM
- EC50 (KM-12): < 300 nM

Structure (SMILES): CN(C)CC(=O)NCC(=O)N1C/C(=C\c2ccc(C#N)cc2)C(=O)/C(=C/c2ccc(C#N)cc2)C1 [Compound B1]
- EC50 (UACC-62 [2]): 300 to 1000 nM
